Measured values from patent publication US7045528B2, “Benzofused heterozryl amide derivatives of thienopyridines useful as therapeutic agents, pharmaceutical compositions including the same, and methods for their use” (Agouron Pharmaceuticals, Inc., priority 2002, dated 2006).
Read-outs that look alike come from different tables or passages of the source.

Experiments:
PDGFRβ = target: T1, PDGFRβ (Homo sapiens, UniProt P09619); assay: PAE-PDGFRβ phosphorylation in PAE-PDGFRB cells assay; assay type: cell-based
T1 construct: expressed in transfected cells; host or cells: porcine aorta endothelial (PAE)-PDGFRβ cells
Description: PAE-PDGFRβ Phosphorylation in PAE-PDGFRB Cells Assay
This assay determines the ability of a test compound to inhibit the autophosphorylation of PDGFRβ in porcine aorta endothelial (PAE)-PDGFRβ cells. PAE cells that overexpress human PDGFRβ were used in this assay. The cells were cultured in Ham's F12 media supplemented with 10% fetal bovine serum (FBS) and 400 ug/ml G418. Twenty thousands cells were seeded in each well of a 96-well plate in 50 μL of growth media and allowed to attach for 6 hours at 37° C. Cells were then exposed to the starvation media (Ham's F12 media supplemented with 0.1% FBS) for 16 hours. After the starvation period was over, 10 μL of test agent in 5% DMSO in starvation media were added to the test wells and 10 μL of the vehicle (5% DMSO in starvation media) were added into the control wells. The final DMSO concentration in each well was 0.5%. Plates were incubated at 37° C. for 1 hour and the cells were then stimulated with 1 μg/mL PDGF-BB (R & D System) in the presence of 2 mM Na3VO4 for 8 minutes. The cells were washed once with 1 mm Na3VO4 in HBSS and lysed by adding 50 μL per well of lysis buffer. One hundred μL of dilution buffer were then added to each well and the diluted cell lysate was transferred to a 96-well goat ant-rabbit coated plate (Pierce), which was pre-coated with Rabbit anti Human PDGFRβ antibody (Santa Cruz). The plates were incubated at room temperature for 2 hours and washed seven times with 1% Tween 20 in PBS. HRP-PY20 (Santa Cruz) was diluted and added to the plate for a 30-minute incubation. Plates were then washed again and TMB peroxidase substrate (Kirkegaard & Perry) was added for a 10-minute incubation. One hundred μL of 0.09 N H2SO4 was added into each well of the 96-well plate to stop the reaction. Phosphorylation status was assessed by spectrophotometer reading at 450 nm. IC50 values were calculated by curve fitting using a four-parameter analysis.

[1] = target: T2, unphosphorylated VEGF-R2Δ50 (FLVK) (Homo sapiens, UniProt P35968, DEL940-989/E990V); assay: VEGF-R2 coupled spectrophotometric assay, unphosphorylated VEGF-R2Δ50 (FLVK); assay type: biochemical; settings: for inhibition at 0.05 µM: read-out: FLVK (% inh @ 50 nM); for inhibition at 0.1 µM: percent inhibition at 100 nM, library amides from Example 101 (R101), crude mixtures in DMSO, read-out: FLVK (% @ 100 nM)
T2 construct: VEGF-R2Δ50 contains residues 806–939 and 990–1171; made in house; host or cells: baculovirus/insect cell system
Text: VEGF-R2 Construct for Assay:
This construct determines the ability of a test compound to inhibit tyrosine kinase activity. A construct (VEGF-R2Δ50) of the cytosolic domain of human vascular endothelial growth factor receptor 2 (VEGF-R2) lacking the 50 central residues of the 68 residues of the kinase insert domain was expressed in a baculovirus/insect cell system. Of the 1356 residues of full-length VEGF-R2, VEGF-R2Δ50 contains residues 806–939 and 990–1171, and also one point mutation (E990V) within the kinase insert domain relative to wild-type VEGF-R2. Autophosphorylation of the purified construct was performed by incubation of the enzyme at a concentration of 4 μM in the presence of 3 mM ATP and 40 mM MgCl2 in 100 mM HEPES, pH 7.5, containing 5% glycerol and 5 mM DTT, at 4° C. for 2 h. […] See Parast et al., Biochemistry, 37, 16788–16801 (1998).
Coupled Spectrophotometric (FLVK-P) Assay
The production of ADP from ATP that accompanies phosphoryl transfer was coupled to oxidation of NADH using phosphoenolpyruvate (PEP) and a system having pyruvate kinase (PK) and lactic dehydrogenase (LDH). The oxidation of NADH was monitored by following the decrease of absorbance at 340 nm (e340=6.22 cm^−1 mM^−1) using a Beckman DU 650 spectrophotometer. Assay conditions for phosphorylated VEGF-R2Δ50 (indicated as FLVK-P in the tables below) were the following: 1 mM PEP; 250 μM NADH; 50 units of LDH/mL; 20 units of PK/mL; 5 mM DTT; 5.1 mM poly(E4Y1); 1 mM ATP; and 25 mM MgCl2 in 200 mM HEPES, pH 7.5. Assay conditions for unphosphorylated VEGF-R2Δ50 (indicated as FLVK in the tables) were the following: 1 mM PEP; 250 μM NADH; 50 units of LDH/mL; 20 units of PK/mL; 5 mM DTT; 20 mM poly(E4Y1); 3 mM ATP; and 60 mM MgCl2 and 2 mM MnCl2 in 200 mM HEPES, pH 7.5. Assays were initiated with 5 to 40 nM of enzyme. Ki values were determined by measuring enzyme activity in the presence of varying concentrations of test compounds. […] The binding inhibitions were fitted to equation as described by Morrison. The data were analyzed using Enzyme Kinetic and Kaleidagraph software.

[2] = PAE cells overexpressing human PDGFRβ, PDGF-BB stimulated, read-out: PAE PDGFR autophos IC50 (nM) AVG
[3] = 50 nM compound, unphosphorylated VEGF-R2Δ50
[4] = library amides from Example 101 (R101), crude mixtures in DMSO, read-out: PAE PDGFR autophos IC50

T1 sequence (P09619 33-1106): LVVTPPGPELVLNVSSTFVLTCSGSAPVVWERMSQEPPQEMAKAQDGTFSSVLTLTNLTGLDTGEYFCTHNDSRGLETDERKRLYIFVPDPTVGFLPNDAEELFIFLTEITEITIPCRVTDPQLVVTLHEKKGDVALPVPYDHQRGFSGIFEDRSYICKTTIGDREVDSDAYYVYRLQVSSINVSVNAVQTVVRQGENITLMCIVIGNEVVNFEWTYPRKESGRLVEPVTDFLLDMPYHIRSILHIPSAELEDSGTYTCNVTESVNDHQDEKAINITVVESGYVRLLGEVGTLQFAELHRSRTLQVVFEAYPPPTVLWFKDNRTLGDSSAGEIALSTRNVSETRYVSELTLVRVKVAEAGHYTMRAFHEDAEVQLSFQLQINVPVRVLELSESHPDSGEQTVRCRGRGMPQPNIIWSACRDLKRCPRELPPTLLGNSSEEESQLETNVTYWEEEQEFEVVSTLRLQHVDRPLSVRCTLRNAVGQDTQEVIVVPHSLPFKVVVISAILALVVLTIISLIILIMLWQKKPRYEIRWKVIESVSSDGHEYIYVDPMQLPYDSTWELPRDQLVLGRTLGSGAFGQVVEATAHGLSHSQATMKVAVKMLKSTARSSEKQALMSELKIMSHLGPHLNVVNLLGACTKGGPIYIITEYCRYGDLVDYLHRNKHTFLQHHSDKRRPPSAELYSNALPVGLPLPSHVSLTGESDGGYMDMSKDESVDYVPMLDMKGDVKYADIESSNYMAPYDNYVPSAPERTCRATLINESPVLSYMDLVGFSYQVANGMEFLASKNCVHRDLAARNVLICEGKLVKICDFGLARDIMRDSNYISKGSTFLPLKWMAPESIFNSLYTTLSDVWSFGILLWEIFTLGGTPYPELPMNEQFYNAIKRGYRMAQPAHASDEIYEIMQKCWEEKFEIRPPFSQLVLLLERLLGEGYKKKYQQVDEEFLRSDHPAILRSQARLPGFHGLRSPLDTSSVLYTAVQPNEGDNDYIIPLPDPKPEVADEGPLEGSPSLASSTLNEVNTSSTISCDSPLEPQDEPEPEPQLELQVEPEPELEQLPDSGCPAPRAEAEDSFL
T2 sequence (P35968 with tags, fused parts or gaps DEL940-989/E990V limits assumed): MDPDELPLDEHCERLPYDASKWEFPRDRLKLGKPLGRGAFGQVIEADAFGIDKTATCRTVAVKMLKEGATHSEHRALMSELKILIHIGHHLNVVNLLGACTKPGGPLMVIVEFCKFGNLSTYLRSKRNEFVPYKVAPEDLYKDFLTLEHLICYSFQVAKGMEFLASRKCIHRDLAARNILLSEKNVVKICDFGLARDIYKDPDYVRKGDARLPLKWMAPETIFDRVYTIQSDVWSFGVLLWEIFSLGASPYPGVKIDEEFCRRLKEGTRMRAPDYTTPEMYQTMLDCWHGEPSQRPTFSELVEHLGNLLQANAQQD

SMILES | IC50 (PDGFRβ; [2]) [nM] | inhibition at 0.05 µM [1, 3] [%] | Ki ([1]; unphosphorylated VEGF-R2Δ50) [nM] | also measured
COC[C@@H]1CCCN1C(=O)c1cc2nccc(Oc3ccc4c(C(=O)NCCCO)c(C)sc4c3)c2s1 [Example 122, 6-[(2-{[(2S)-2-(Methoxymethyl)pyrrolidin-1-yl]carbonyl}thieno[3,2-b]pyridin-7-yl)oxy]-2-methylbenzo[b]thiophene-3-carboxylic acid 3-hydroxypropylamide] | 351 | 58 | 5.14 | 
COC(=O)C1CN1C(=O)c1c(C)oc2cc(Oc3ccnc4ccsc34)ccc12 (stereo not shown) |  |  |  | IC50 (PDGFRβ; [4]): > 100 nM; inhibition at 0.1 µM [1]: 51%
CNC(=O)c1c(C)n(C)c2cc(Oc3ccnc4cc(C(=O)N5CC[C@@H](NC)C5)sc34)ccc12 [Example 35, 1,2-Dimethyl-6-[2-(3-methylamino-pyrrolidine-1-carbonyl)-thieno[3,2-b]pyridin-7-yloxy]-1H-indole-3-carboxylic acid methylamide] |  | 23 | 35.2 | IC50 (PDGFRβ): 70 nM
CCc1c(C(=O)NC)c2ccc(Oc3ccnc4cc(-c5nccn5C)sc34)cc2n1C [Example 74, 2-Ethyl-1-methyl-6-[2-(1-methyl-1H-imidazol-2-yl)-thieno[3,2-b]pyridin-7-yloxy]-1H-indole-3-carboxylic acid methylamide] | 313 | 43 | 12.7 | 
Cc1oc2cc(Oc3ccnc4ccsc34)ccc2c1C(=O)NCCN1CCOCC1 [drawing 310] |  |  |  | IC50 (PDGFRβ; [4]): 50 nM
Cc1oc2cc(Oc3ccnc4ccsc34)ccc2c1C(=O)Nc1cc[nH]n1 |  |  |  | IC50 (PDGFRβ; [4]): > 100 nM; inhibition at 0.1 µM [1]: 91%
COC(=O)[C@H](Cc1c[nH]cn1)NC(=O)c1c(C)oc2cc(Oc3ccnc4ccsc34)ccc12 |  |  |  | IC50 (PDGFRβ; [4]): 49 nM; inhibition at 0.1 µM [1]: 52%
CNC(=O)c1c(C)n(C)c2cc(Oc3ccnc4cc(C(=O)N5CC[C@@H](N(C)C(=O)OC(C)(C)C)C5)sc34)ccc12 [Example 34, tert-Butyl-(3R)-1-{[7-({1,2-dimethyl-3-[(methylamino)carbonyl]-1H-indol-6-yl}oxy)thieno[3,2-b]pyridin-2-yl]carbonyl}pyrrolidin-3-yl(methyl)carbamate] | 31.3 | 45 | 11.4 | 
CO[C@@H]1CCN(C(=O)c2cc3nccc(Oc4ccc5c(C(=O)NCCO)c(C)oc5c4)c3s2)C1 [Example 93, 6-[2-(3-Methoxy-pyrrolidine-1-carbonyl)-thieno[3,2-b]pyridin-7-yloxy]-2-methyl-benzofuran-3-carboxylic acid 2-hydroxyethyl amide] | 44 | 84 | 2.72 | 
CNC(=O)c1c(C)n(C)c2cc(Oc3ccnc4cc(C(=O)N(C)CCCN(C)C)sc34)ccc12 [Example 32, N-[3-(Dimethylamino)propyl]-7-({1,2-dimethyl-3-[(methylamino)carbonyl]-1H-indol-6-yl}oxy)-N-methylthieno[3,2-b]pyridine-2-carboxamide] | 29.2 | 22 | 39.4 | 
CNC(=O)c1c(C(C)C)oc2cc(Oc3ccnc4cc(C(=O)N5CC[C@@H](OC)C5)sc34)ccc12 [Example 15, 6-(2-[3-methoxypyrrolidine-1-carbonyl]thieno[3,2-b]pyridin-7-yloxy)-2-(1-methylethyl)benzofuran-3-carboxylic acid methylamide] |  | 13 | 48.3 | 
CNC(=O)c1c(C)n(C)c2cc(Oc3ccnc4cc(C(=O)N(C)CCO)sc34)ccc12 [Example 31] |  | 25 | 30.2 | 
CCn1c(C)c(C(=O)NC)c2ccc(Oc3ccnc4cc(-c5nccn5C)sc34)cc21 [Example 72, 1-Ethyl-2-methyl-6-[2-(1-methyl-1H-imidazol-2-yl)-thieno[3,2-b]pyridin-7-yloxy]-1H-indole-3-carboxylic acid methylamide] |  |  |  | inhibition at 0.05 µM [1]: 2%
CNC(=O)c1c(C)n(C)c2cc(Oc3ccnc4cc(C(=O)N5CC[C@@H](N(C)C)C5)sc34)ccc12 [Example 27, 6-[(2-{[(3R)-3-(Dimethylamino)pyrrolidin-1-yl]carbonyl}thieno[3,2-b]pyridin-7-yl)oxy]-N,1,2-trimethyl-1H-indole-3-carboxamide] | 205 | 13 | 96 | 

Second part, led by results:

IC50 (PDGFRβ; [2]) [nM] | inhibition at 0.05 µM [1, 3] [%] | Ki ([1]; unphosphorylated VEGF-R2Δ50) [nM] | SMILES | also measured
203 | 52 | 7 | Cc1oc2cc(Oc3ccnc4ccsc34)ccc2c1C(=O)NCCN1CCOCC1 [Example 103, 2-Methyl-6-[thieno[3,2-b]pyridin-7-yloxy]benzofuran-3-carboxylic acid (2-morpholin-4-yl-ethyl)-amide] | 
127 | 61 | 8.37 | CCCCNC(=O)c1c(C)oc2cc(Oc3ccnc4ccsc34)ccc12 [Example 105, 2-Methyl-6-[Thieno(3,2-b)pyridin-7-yloxy]benzofuran-3-carboxylic acid butyl amide] | 
563 | 66 | 4.68 | CNC(=O)c1c(C)oc2cc(Oc3ccnc4ccsc34)ccc12 [Example 99, 6-[Thieno(3,2-b)pyridin-7-yloxy]-2-methyl-benzofuran-3-carboxylic acid methyl amide] | 
468 | 40 | 5.9 | Cc1sc2cc(Oc3ccnc4ccsc34)ccc2c1C(=O)NCCN1CCOCC1 [Example 133, 2-Methyl 6-(thieno[3,2-b]pyridin-7-yloxy)benzo[b]thiophene-3-carboxylic acid (2-morpholin-4-yl)ethylamide] | 
 | 91 |  | Cc1oc2cc(Oc3ccnc4ccsc34)ccc2c1C(=O)NCCCN1CCOCC1 [Example 112, 2-Methyl-6-(thieno[3,2-b]pyridin-7-yloxy)benzofuran-3-carboxylic acid (3-morpholin-4-ylpropyl)-amide] | 
